Results taken from article PMC4822888, “Subtype-Selective Small Molecule Inhibitors Reveal a Fundamental Role for Nav1.7 in Nociceptor Electrogenesis, Axonal Conduction and Presynaptic Release” (PLoS ONE, 2016).

Key:
[1] = target: cynNav1.7 (Macaca fascicularis, UniProt A0A2K5WIF4); assay: cell-based; assay type: cell-based, cynomologus macaque
[2] = target: dogNav1.7 (Canis lupus familiaris, UniProt A0A8I3P4Z8); assay: cell-based; assay type: cell-based, dog
[3] = test system: cynomolgus TRPV1 receptor; assay: Blockade of cynomolgus TRPV1 receptor; settings: tested concentrations up to 10 μM
[4] = target: Adenosine A1 receptor (Homo sapiens, UniProt P30542); assay: Off target activity panel; assay type: binding; settings: read-out: Inhibition at test concentration (%)
[5] = target: Adenosine A2a receptor (Homo sapiens, UniProt P29274); assay: Off target activity panel; assay type: binding; settings: read-out: Inhibition at test concentration (%)
[6] = target: Adenosine A3 receptor (Homo sapiens, UniProt P0DMS8); assay: Off target activity panel; assay type: binding; settings: read-out: Inhibition at test concentration (%)
[7] = test system: Adrenergic alpha 1 receptor; assay: Off target activity panel; assay type: binding; settings: 10 µM
[8] = target: Adrenergic alpha 2A receptor (Homo sapiens, UniProt P08913); assay: Off target activity panel; assay type: binding; settings: read-out: Inhibition at test concentration (%)
[9] = target: Beta 2 adrenergic receptor (Homo sapiens, UniProt P07550); assay: Off target activity panel; assay type: binding; settings: read-out: Inhibition at test concentration (%)
[10] = test system: GABA Benzodiazepine site; assay: Off target activity panel; assay type: binding; settings: 10 µM
[11] = test system: Calcium channel L-type (diltiazem site); assay: Off target activity panel; assay type: binding; settings: 10 µM
[12] = test system: Calcium channel L-type (verapamil site); assay: Off target activity panel; assay type: binding; settings: 10 µM
[13] = target: Cannabinoid receptor 1 (Homo sapiens, UniProt P21554); assay: Off target activity panel; assay type: binding; settings: read-out: Inhibition at test concentration (%)
[14] = target: Cholycystokinin 1 (CCKA) receptor (Homo sapiens, UniProt P32238); assay: Off target activity panel; assay type: binding; settings: read-out: Inhibition at test concentration (%)
[15] = target: Dopamine D3 receptor (Homo sapiens, UniProt P35462); assay: Off target activity panel; assay type: binding; settings: read-out: Inhibition at test concentration (%)
[16] = target: Dopamine D4 receptor (Homo sapiens, UniProt P21917); assay: Off target activity panel; assay type: binding; settings: read-out: Inhibition at test concentration (%)
[17] = test system: GABA transporter; assay: Off target activity panel; assay type: binding; settings: 10 µM
[18] = target: Histamine H2 receptor (Homo sapiens, UniProt P25021); assay: Off target activity panel; assay type: binding; settings: read-out: Inhibition at test concentration (%)
[19] = target: Kappa opioid receptor (Homo sapiens, UniProt P41145); assay: Off target activity panel; assay type: binding
[20] = target: Matrix metalloprotease 9 (Homo sapiens, UniProt P14780); assay: Off target activity panel; assay type: biochemical; settings: read-out: Inhibition at test concentration (%)
[21] = target: Melanocortin 4 receptor (Homo sapiens, UniProt P32245); assay: Off target activity panel; assay type: binding; settings: read-out: Inhibition at test concentration (%)
[22] = target: Monoamine oxidase A (Homo sapiens, UniProt P21397); assay: Off target activity panel; assay type: biochemical; settings: read-out: Inhibition at test concentration (%)
[23] = target: Mu opiod receptor (Homo sapiens, UniProt P35372); assay: Off target activity panel; assay type: binding; settings: read-out: Inhibition at test concentration (%)
[24] = target: Muscarinic M3 receptor (Homo sapiens, UniProt P20309); assay: Off target activity panel; assay type: binding; settings: read-out: Inhibition at test concentration (%)
[25] = target: Neurokinin NK2 receptor (Homo sapiens, UniProt P21452); assay: Off target activity panel; assay type: binding; settings: read-out: Inhibition at test concentration (%)
[26] = target: PDE3B (Homo sapiens, UniProt Q13370); assay: Off target activity panel; assay type: biochemical; settings: read-out: Inhibition at test concentration (%)
[27] = test system: PDE6; assay: Off target activity panel; assay type: biochemical; settings: 10 µM
[28] = target: PDE11 (Homo sapiens, UniProt Q9HCR9); assay: Off target activity panel; assay type: biochemical; settings: read-out: Inhibition at test concentration (%)
[29] = target: T1, PPAR gamma (Homo sapiens, UniProt P37231); assay: Off target activity panel; assay type: binding
T1 sequence (P37231 1-505): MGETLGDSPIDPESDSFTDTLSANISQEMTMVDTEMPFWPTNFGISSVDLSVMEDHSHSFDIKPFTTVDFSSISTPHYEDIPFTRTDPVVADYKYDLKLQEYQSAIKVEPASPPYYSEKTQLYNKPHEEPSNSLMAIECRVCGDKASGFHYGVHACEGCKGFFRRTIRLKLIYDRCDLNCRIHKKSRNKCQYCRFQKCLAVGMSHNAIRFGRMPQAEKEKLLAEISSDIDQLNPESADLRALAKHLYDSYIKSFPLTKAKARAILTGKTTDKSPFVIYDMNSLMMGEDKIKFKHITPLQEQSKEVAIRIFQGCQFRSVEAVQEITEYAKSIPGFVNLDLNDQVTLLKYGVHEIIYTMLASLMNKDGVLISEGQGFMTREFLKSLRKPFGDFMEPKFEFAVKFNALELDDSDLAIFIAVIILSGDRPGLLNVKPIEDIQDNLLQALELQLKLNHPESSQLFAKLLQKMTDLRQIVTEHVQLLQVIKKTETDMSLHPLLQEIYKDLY

[30] = target: Serotonin 5-HT transporter (Homo sapiens, UniProt P31645); assay: Off target activity panel; assay type: binding; settings: read-out: Inhibition at test concentration (%)
[31] = target: Serotonin 5-HT1A (Homo sapiens, UniProt P08908); assay: Off target activity panel; assay type: binding; settings: read-out: Inhibition at test concentration (%)
[32] = target: Serotonin 5-HT1B (Homo sapiens, UniProt P28222); assay: Off target activity panel; assay type: binding; settings: read-out: Inhibition at test concentration (%)
[33] = target: Serotinin 5-HT2B (Homo sapiens, UniProt P41595); assay: Off target activity panel; assay type: binding; settings: read-out: Inhibition at test concentration (%)
[34] = target: Serotonin 5-HT3 (Homo sapiens, UniProt P46098); assay: Off target activity panel; assay type: binding; settings: read-out: Inhibition at test concentration (%)
[35] = target: Serotonin 5-HT7 (Homo sapiens, UniProt P34969); assay: Off target activity panel; assay type: binding; settings: read-out: Inhibition at test concentration (%)
[36] = test system: Sigma receptor; assay: Off target activity panel; assay type: binding; settings: 10 µM
[37] = target: Somatostatin receptor 4 (Homo sapiens, UniProt P31391); assay: Off target activity panel; assay type: binding; settings: read-out: Inhibition at test concentration (%)
[38] = 10 µM, read-out: Inhibition at test concentration (%)

## Nc1[nH]ncc1-c1cc(Cl)ccc1Oc1cc(F)c(S(=O)(=O)Nc2cscn2)cc1Cl [PF-05089771, 4-[2-(5-amino-1H-pyrazol-4-yl)-4-chlorophenoxy]-5-chloro-2-fluoro-N-(1,3-thiazol-4-yl)benzenesulfonamide]
[1]
  IC50: 12 nM
[1]; cynNav1.7
  Slope: 1.1
[2]
  IC50: 13 nM
[2]; dogNav1.7
  Slope: 0.9
[3]
  Blockade of cynomolgus TRPV1 receptor: No blockade
[4]
  inhibition at 10 µM: 15%
[5]
  inhibition at 10 µM: 15%
[6]
  inhibition at 10 µM: 4%
[7]
  Inhibition at test concentration (%): -5%
[8]
  inhibition at 10 µM: 10%
[9]
  inhibition at 10 µM: 4%
[10]
  Inhibition at test concentration (%): 5%
[11]
  Inhibition at test concentration (%): 16%
[12]
  Inhibition at test concentration (%): -6%
[13]
  inhibition at 10 µM: 0%
[14]
  inhibition at 10 µM: 17%
[15]
  inhibition at 10 µM: 16%
[16]
  inhibition at 10 µM: 5%
[17]
  Inhibition at test concentration (%): 1%
[18]
  inhibition at 10 µM: -3%
[19]; [38]
  inhibition at 10 µM: 86%
[19]; Kappa opioid receptor
  Ki: 390 nM
[20]
  inhibition at 10 µM: -3%
[21]
  inhibition at 10 µM: -11%
[22]
  inhibition at 10 µM: -13%
[23]
  inhibition at 10 µM: 7%
[24]
  inhibition at 10 µM: 16%
[25]
  inhibition at 10 µM: -10%
[26]
  inhibition at 10 µM: 4%
[27]
  Inhibition at test concentration (%): 7%
[28]
  inhibition at 10 µM: 6%
[29]; [38]
  inhibition at 10 µM: 60%
[29]; PPAR gamma
  Ki: 2800 nM
[30]
  inhibition at 10 µM: 0%
[31]
  inhibition at 10 µM: 13%
[32]
  inhibition at 10 µM: 6%
[33]
  inhibition at 10 µM: -6%
[34]
  inhibition at 10 µM: 4%
[35]
  inhibition at 10 µM: -7%
[36]
  Inhibition at test concentration (%): -8%
[37]
  inhibition at 10 µM: 5%
